Data: patent publication US12344614B2, “Benzodiazepine derivatives as GABA a GAMMA1 PAM” (Hoffmann-La Roche Inc., priority 2021, dated 2025)
Read-outs that look alike come from different tables or passages of the source.

What was measured:
[1] = molecular target: human GABAA α5β2γ1 receptor (Homo sapiens (Human), UniProt P31644+Q8N1C3); assay: Radioligand binding assay, competition for [3H]RO7239181, membranes from HEK293F cells
Protocol: The affinity of compounds at GABAA γ1 subunit-containing receptors was measured by competition for [^3H]RO7239181 (67.3 Ci/mmol; Roche) binding to membranes from HEK293F cells (ThermoFisher R79007) expressing human (transiently transfected) receptors of composition α5β2γ1, α2β2γ1, α1β2γ1. For better protein expression of the α2 subunit-containing receptors, the 28 amino acid long signal peptide (Met1 to Ala28) of the human GABAA α2 subunit was substituted by the 31 amino acid long signal peptide (Met1 to Ser31) of human GABAA α5 subunit.
(§1) Harvested pellets from HEK293F cells expressing the different GABAA receptor subtypes were resuspended in Mannitol Buffer pH 7.2-7.4 (Mannitol 0.29M, Triethylamine 10 mM, Acetic acid 10 mM, EDTA 1 mM plus protease inhibitors (20 tablets Complete, Roche Diagnostics Cat. No. 05 056 489 001 per liter)), washed two times and then resuspended at 1:10 to 1:15 dilution in the same buffer. Cell disruption was performed by stirring the suspension in a Parr vessel #4637 at 435 psi for 15 minutes, and then the suspensions were centrifuged at 1000×g for 15 minutes at 4° C. (Beckman Avanti J-HC; rotor JS-4.2). The supernatant (S1) was transferred in a 21 Schott flask and the pellet (P1) was resuspended with Mannitol Buffer up to 175 ml. The resuspended pellet was transferred into a 250 ml Corning centrifugal beaker and centrifuged at 1500×g for 10 minutes at 4° C. (Beckman Avanti J-HC; rotor JS-4.2). The supernatant (S1) was then transferred in the 21 Schott flask and the pellet was discarded. The supernatants (S1) were centrifuged in 500 ml Beckman polypropylene centrifugal beaker at 15′000×g for 30 minutes at 4° C. (Beckman Avanti J-20 XP; rotor JLA-10.500). The pellet (P2) was resuspended with Mannitol Buffer 1:1 and frozen at −80° C. The supernatant (S2) was centrifuged in 100 ml Beckman polypropylene centrifugal tubes at 48000×g for 50 minutes at 4° C. (Beckman Avanti J-20 XP; rotor JA-18). The supernatant (S3) was discarded and the pellet (P3) was resuspended with 1:1 Mannitol Buffer. The P2 and P3 protein concentration was determined with the BIORAD Standard assay method with bovine serum albumin as standard and measured on the NANO-Drop 1000. The membrane suspension was aliquots (500 μl per tube) and stored at −80° C. until required.
(§2) Membrane homogenates were resuspended and polytronised (Polytron PT1200E Kinematica AG) in Potassium Phosphate 10 mM, KCl 100 mM binding buffer at pH 7.4 to a final assay concentration determined with a previous experiment.
Radioligand binding assays were carried out in a volume of 200 μL (96-well plates) which contained 100 μL of cell membranes, [^3H]RO7239181 at a concentration of 1.5 nM (α5β2γ1) or 20-30 nM (α1β2γ1, α2β2γ1) and the test compound in the range of [0.3-10000]×10^−9 M. Nonspecific binding was defined by 10×10^−6 (α5β2γ1) and 30×10^−6 M RO7239181 and typically represented less than 5% (α5β2γ1) and less than 20% (α1β2γ1, α2β2γ1) of the total binding. Assays were incubated to equilibrium for 1 hour at 4° C. and then, membranes were filtered onto unifilter (96-well white microplate with bonded GF/C filters preincubated 20-50 minutes in 0.3% Polyethylenimine) with a Filtermate 196 harvester (Packard BioScience) and washed 4 times with cold Potassium Phosphate 10 mM pH 7.4, KCl 100 mM binding buffer. After anhydrousing, filter-retained radioactivity was detected by liquid scintillation counting. Ki values were calculated using Excel-Fit (Microsoft) and are the means of two determinations.
Representative test results, obtained by the above described assay measuring binding affinity to HEK293 cells expressing human (h) receptors, are shown in the Table 1.

[2] = molecular target: human GABAA α2β2γ1 receptor (Homo sapiens (Human), UniProt P47869+Q8N1C3); assay: as above
Protocol: The affinity of compounds at GABAA γ1 subunit-containing receptors was measured by competition for [^3H]RO7239181 (67.3 Ci/mmol; Roche) binding to membranes from HEK293F cells (ThermoFisher R79007) expressing human (transiently transfected) receptors of composition α5β2γ1, α2β2γ1, α1β2γ1.
as §1, §2
Assays were incubated to equilibrium for 1 hour at 4° C. and then, membranes were filtered onto unifilter (96-well white microplate with bonded GF/C filters preincubated 20-50 minutes in 0.3% Polyethylenimine) with a Filtermate 196 harvester (Packard BioScience) and washed 4 times with cold Potassium Phosphate 10 mM pH 7.4, KCl 100 mM binding buffer. After anhydrousing, filter-retained radioactivity was detected by liquid scintillation counting. Ki values were calculated using Excel-Fit (Microsoft) and are the means of two determinations.

[3] = molecular target: human GABAA α1β3γ2 receptor (Homo sapiens (Human), UniProt P14867+P18507); assay: Radioligand binding assay, competition for [3H]Flumazenil, HEK293F cells; conditions: for LogSel: Log[Ki α1β3γ2 (nM)/Ki α2β2γ1 (nM)]; for γ2/γ1 Selectivity Ratio: Ki α1β3γ2 (nM)/Ki α2β2γ1 (nM)
Protocol: The affinity of compounds at GABAA γ2 subunit-containing receptors was measured by competition for [^3H]Flumazenil (81.1 Ci/mmol; Roche) binding to HEK293F cells expressing human (transiently transfected) receptors of composition α1β3γ2.
Harvested pellets from HEK293F cells expressing the different GABAA γ2 receptor subtypes were resuspended in Mannitol Buffer pH 7.2-7.4 and processed as described above for the cells expressing the GABAA γ1 subunit-containing receptors.
Assays were incubated to equilibrium for 1 hour at 4° C. and harvested onto GF/C uni-filters (Packard) by filtration using a Packard harvester and washing with ice-cold wash buffer (50 mM Tris; pH 7.5). After anhydrousing, filter-retained radioactivity was detected by liquid scintillation counting. Ki values were calculated using Excel-Fit (Microsoft) and are the means of two determinations.

[4] = read-out: Ki h-GABAA α2β2γ1, [3H]RO7239181 20-30 nM, HEK293F membranes, 1 hour at 4° C., mean of two determinations

With `Cc1ccc2c(c1Cl)C(c1cc(O)ccc1F)=NCC(=O)N2C` [Example 2, 6-chloro-5-(2-fluoro-5-hydroxy-phenyl)-1,7-dimethyl-3H-1,4-benzodiazepin-2-one] the Ki [1] was 0.53 nM, the Ki [2] was 1.49 nM and the Ki [2, 4] was 1.49 nM. It also gave a Ki [3] of 58.2 nM and a LogSel [3] of 1.59.
For `Cc1cnc2n1-c1ccc(C(F)(F)F)c(Cl)c1C(c1nc(O)ccc1F)=N[C@H]2C` [Example 23, 6-[(4S)-7-chloro-1,4-dimethyl-8-(trifluoromethyl)-4H-imidazo[1,2-a][1,4]benzodiazepin-6-yl]-5-fluoro-pyridin-2-ol], the Ki [1] was 3.08 nM, the Ki [2] was 8.88 nM and the Ki [2, 4] was 8.88 nM. For the same molecule, the Ki [3] was 8010 nM, the “γ2/γ1 Selectivity Ratio” value [3] was 902.4 and the LogSel [3] was 2.96.
In the case of `COC1CN(C(=O)c2nc3n(n2)-c2ccc(Cl)c(Cl)c2C(c2cc(O)ccc2F)=NC3)C1` [Example 7, [7,8-dichloro-6-(2-fluoro-5-hydroxy-phenyl)-4H-[1,2,4]triazolo[1,5-a][1,4]benzodiazepin-2-yl]-(3-methoxyazetidin-1-yl)methanone], the Ki [1] is reported as 1.4 nM, the Ki [2] is reported as 2.22 nM and the Ki [2, 4] is reported as 2.22 nM. For the same molecule, the Ki [3] was 34.6 nM, the “γ2/γ1 Selectivity Ratio” value [3] was 15.6 and the LogSel [3] was 1.19.
Molecule `CN1C(=O)CN=C(c2cc(O)ccc2F)c2c1ccc(Cl)c2Cl` [Example 1, 6,7-dichloro-5-(2-fluoro-5-hydroxy-phenyl)-1-methyl-3H-1,4-benzodiazepin-2-one] has a Ki [1] of 0.34 nM, a Ki [2] of 2.27 nM and a Ki [2, 4] of 2.27 nM. The Ki [3] was 28.7 nM, the LogSel [3] was 1.1 and the Ki ([3]; read-out: Ki h-GABAA α1β3γ2, [3H]Flumazenil 1 nM, HEK293F membranes, 1 hour at 4° C., mean of two determinations) was 28.7 nM.
With `Cc1nnc2n1-c1ccc(Cl)c(Cl)c1C(c1c(F)ccc(O)c1F)=NC2` [Example 13, 3-(7,8-dichloro-1-methyl-4H-[1,2,4]triazolo[4,3-a][1,4]benzodiazepin-6-yl)-2,4-difluoro-phenol] the Ki [1] was 0.4 nM, the Ki [2] was 3.85 nM and the Ki [2, 4] was 3.85 nM. For the same molecule, the Ki [3] was 72.6 nM, the “γ2/γ1 Selectivity Ratio” value [3] was 18.8 and the LogSel [3] was 1.28.
In the case of `CN1C(=O)CN=C(c2cc(O)ccc2F)c2c1ccc(C(F)(F)F)c2Cl` [Example 8, 6-chloro-5-(2-fluoro-5-hydroxy-phenyl)-1-methyl-7-(trifluoromethyl)-3H-1,4-benzodiazepin-2-one], the Ki [1] is reported as 0.44 nM, the Ki [2] is reported as 2.35 nM and the Ki [2, 4] is reported as 2.35 nM. The Ki [3] was 80.9 nM, the “γ2/γ1 Selectivity Ratio” value [3] was 34.4 and the LogSel [3] was 1.54.
`Cc1nnc2n1-c1ccc(Cl)c(Cl)c1C(c1cc(O)ccc1F)=N[C@H]2C` [Example 4, 4-fluoro-3-[(4S)-7,8-dichloro-1,4-dimethyl-4H-[1,2,4]triazolo[4,3-a][1,4]benzodiazepin-6-yl]phenol] gave a Ki [1] of 0.38 nM, a Ki [2] of 1.99 nM and a Ki [2, 4] of 1.99 nM. For the same molecule, the Ki [3] was 81.7 nM, the “γ2/γ1 Selectivity Ratio” value [3] was 41.1 and the LogSel [3] was 1.61.
Work on `O=c1ccn2c(n1)CN=C(c1cc(O)ccc1F)c1c-2ccc(Cl)c1Cl` [Example 6, 8,9-dichloro-7-(2-fluoro-5-hydroxy-phenyl)-5H-pyrimido[1,2-a][1,4]benzodiazepin-3-one] yielded a Ki [1] of 0.39 nM, a Ki [2] of 2.18 nM and a Ki [2, 4] of 2.18 nM. The Ki [3] was 46.7 nM, the “γ2/γ1 Selectivity Ratio” value [3] was 21.4 and the LogSel [3] was 1.33.
`O=c1ccn2c(n1)CN=C(c1c(F)ccc(O)c1F)c1c-2ccc(Cl)c1Cl` [Example 14, 8,9-dichloro-7-(2,6-difluoro-3-hydroxy-phenyl)-5H-pyrimido[1,2-a][1,4]benzodiazepin-3-one] showed a Ki [1] of 0.85 nM, a Ki [2] of 4.67 nM and a Ki [2, 4] of 4.67 nM. The Ki [3] was 74.6 nM, the “γ2/γ1 Selectivity Ratio” value [3] was 16.0 and the LogSel [3] was 1.20.
For `Cc1nnc2n1-c1ccc(C(F)(F)F)c(Cl)c1C(c1nc(O)ccc1F)=N[C@H]2C` [Example 20, 6-[(4S)-7-chloro-1,4-dimethyl-8-(trifluoromethyl)-4H-[1,2,4]triazolo[4,3-a][1,4]benzodiazepin-6-yl]-5-fluoro-pyridin-2-ol], the Ki [1] was 5.02 nM, the Ki [2] was 40.1 nM and the Ki [2, 4] was 40.1 nM. The Ki [3] was 11200 nM, the “γ2/γ1 Selectivity Ratio” value [3] was 279.6 and the LogSel [3] was 2.45.
For `COC1CN(C(=O)c2nc3n(n2)-c2ccc(C(F)(F)F)c(Cl)c2C(c2cc(O)ccc2F)=NC3)C1` [Example 16, [7-chloro-6-(2-fluoro-5-hydroxy-phenyl)-8-(trifluoromethyl)-4H-[1,2,4]triazolo[1,5-a][1,4]benzodiazepin-2-yl]-(3-methoxyazetidin-1-yl)methanone], the Ki [1] was 1.04 nM, the Ki [2] was 3.6 nM and the Ki [2, 4] was 3.6 nM. The Ki [3] was 164 nM, the “γ2/γ1 Selectivity Ratio” value [3] was 45.6 and the LogSel [3] was 1.66.
`Cc1cn2c(n1)[C@H](C)N=C(c1nc(O)ccc1F)c1c-2ccc(C(F)(F)F)c1Cl` [Example 28, 6-[(4S)-7-chloro-2,4-dimethyl-8-(trifluoromethyl)-4H-imidazo[1,2-a][1,4]benzodiazepin-6-yl]-5-fluoro-pyridin-2-ol] showed a Ki [1] of 2.07 nM, a Ki [2] of 5.28 nM and a Ki [2, 4] of 5.28 nM. The Ki [3] was 4080 nM, the “γ2/γ1 Selectivity Ratio” value [3] was 772.7 and the LogSel [3] was 2.89.
Work on `Cc1nc2n(n1)-c1ccc(C(F)(F)F)c(Cl)c1C(c1nc(O)ccc1F)=N[C@H]2C` [Example 25, 6-[(4S)-7-chloro-2,4-dimethyl-8-(trifluoromethyl)-4H-[1,2,4]triazolo[1,5-a][1,4]benzodiazepin-6-yl]-5-fluoro-pyridin-2-ol] yielded a Ki [1] of 2.32 nM, a Ki [2] of 10.9 nM and a Ki [2, 4] of 10.9 nM. The Ki [3] was 10600 nM, the “γ2/γ1 Selectivity Ratio” value [3] was 977.2 and the LogSel [3] was 2.99.
`Cc1nnc2n1-c1ccc(C(F)(F)F)c(Cl)c1C(c1cc(O)ccc1F)=NC2` [Example 9, 3-[7-chloro-1-methyl-8-(trifluoromethyl)-4H-[1,2,4]triazolo[4,3-a][1,4]benzodiazepin-6-yl]-4-fluoro-phenol] showed a Ki [1] of 0.86 nM, a Ki [2] of 3.25 nM and a Ki [2, 4] of 3.25 nM. The Ki [3] was 106 nM, the “γ2/γ1 Selectivity Ratio” value [3] was 32.6 and the LogSel [3] was 1.51.
